Converted amounts (≈) assume the structure as drawn. The source made the active and inactive calls. No cut-off for these calls is given here.
Assays:
[1] = tested on: Escherichia coli; experiment: Synergistic antibacterial activity against pET28a NDM-1 positive Escherichia coli BL21(DE3) isolates assessed as fractional Inhibitory concentration index incubated for 18 to 24 hrs in presence of meropenem by CLSI based broth microdilution method; format: functional; conditions: time 18-24 hrs
[2] = tested on: Escherichia coli; experiment: Antibacterial activity against NDM-1 positive Escherichia coli ZC-YN3 isolates assessed as streptomycin MIC incubated for 18 to 24 hrs by CLSI based broth microdilution method; format: functional; conditions: time 18-24 hrs
[3] = tested on: Escherichia coli; experiment: Antibacterial activity against NDM-1 positive Escherichia coli ZC-YN3 isolates assessed as colistin MIC incubated for 18 to 24 hrs by CLSI based broth microdilution method; format: functional; conditions: time 18-24 hrs
[4] = tested on: Escherichia coli; experiment: Synergistic antibacterial activity against NDM-1 positive Escherichia coli ZC-YN3 isolates assessed as fractional Inhibitory concentration index incubated for 18 to 24 hrs in presence of meropenem by CLSI based broth microdilution method; format: functional; conditions: time 18-24 hrs
[5] = tested on: Escherichia coli; experiment: Synergistic antibacterial activity against pET28a NDM-1 positive Escherichia coli BL21(DE3) isolates assessed as fractional Inhibitory concentration index incubated for 18 to 24 hrs in presence of ciprofloxacin by CLSI based broth microdilution method; format: functional; conditions: time 18-24 hrs
[6] = tested on: Escherichia coli; experiment: Synergistic antibacterial activity against pET28a NDM-1 positive Escherichia coli BL21(DE3) isolates assessed as fractional Inhibitory concentration index incubated for 18 to 24 hrs in presence of doxycycline by CLSI based broth microdilution method; format: functional; conditions: time 18-24 hrs
[7] = tested on: Escherichia coli; experiment: Synergistic antibacterial activity against NDM-1 positive Escherichia coli ZC-YN3 isolates assessed as fractional Inhibitory concentration index incubated for 18 to 24 hrs in presence of streptomycin by CLSI based broth microdilution method; format: functional; conditions: time 18-24 hrs
[8] = tested on: Bacteria; experiment: Inhibition of NDM-1 V73A mutant activity (unknown origin) in presence of zinc ion
[9] = tested on: Escherichia coli; experiment: Antibacterial activity against pET28a-NDM-1 positive Escherichia coli BL21(DE3) isolates assessed as lincomycin MIC incubated for 18 to 24 hrs by CLSI based broth microdilution method; format: functional; conditions: time 18-24 hrs
[10] = tested on: Escherichia coli; experiment: Synergistic antibacterial activity against NDM-1 negative Escherichia coli BL21(DE3) (pET28a) isolates assessed as fractional Inhibitory concentration index incubated for 18 to 24 hrs in presence of meropenem by CLSI based broth microdilution method; format: functional; conditions: time 18-24 hrs
[11] = tested on: Escherichia coli; experiment: Antibacterial activity against pET28a-NDM-1 positive Escherichia coli BL21(DE3) isolates assessed as doxycycline MIC incubated for 18 to 24 hrs by CLSI based broth microdilution method; format: functional; conditions: time 18-24 hrs
[12] = tested on: Bacteria; experiment: Inhibition of NDM-1 H250A mutant activity (unknown origin) in presence of zinc ion
[13] = tested on: Escherichia coli; experiment: Antibacterial activity against NDM-1 positive Escherichia coli ZC-YN3 isolates assessed as ciprofloxacin MIC incubated for 18 to 24 hrs by CLSI based broth microdilution method; format: functional; conditions: time 18-24 hrs
[14] = tested on: Escherichia coli; experiment: Antibacterial activity against NDM-1 positive Escherichia coli ZC-YN3 isolates assessed as florfenicol MIC incubated for 18 to 24 hrs by CLSI based broth microdilution method; format: functional; conditions: time 18-24 hrs
[15] = tested on: Escherichia coli; experiment: Antibacterial activity against NDM-1 positive Escherichia coli ZC-YN3 isolates assessed as spectinomycin MIC incubated for 18 to 24 hrs by CLSI based broth microdilution method; format: functional; conditions: time 18-24 hrs
[16] = tested on: Escherichia coli; experiment: Synergistic antibacterial activity against NDM-1 positive MCR1 carrying Escherichia coli ZJ487 isolates assessed as fractional Inhibitory concentration index incubated for 18 to 24 hrs in presence of meropenem by CLSI based broth microdilution method; format: functional; conditions: time 18-24 hrs
[17] = Inhibition of metallo-beta-lactamase IMP-1 (unknown origin) using nitrocefin as substrate preincubated for 15 min followed by substrate addition and measured after 15 min by microplate reader assay; parameters: species or system Bacteria
[18] = tested on: Bacteria
Description: Binding affinity to NDM-1 (unknown origin) assessed as binding constant by fluorescence quenching method

[19] = tested on: Escherichia coli; experiment: Antibacterial activity against pET28a-NDM-1 positive Escherichia coli BL21(DE3) isolates assessed as spectinomycin MIC incubated for 18 to 24 hrs by CLSI based broth microdilution method; format: functional; conditions: time 18-24 hrs
[20] = tested on: Escherichia coli; experiment: Antibacterial activity against NDM-1 positive Escherichia coli ZC-YN3 isolates assessed as rifampicin MIC incubated for 18 to 24 hrs by CLSI based broth microdilution method; format: functional; conditions: time 18-24 hrs
[21] = tested on: Escherichia coli; experiment: Synergistic antibacterial activity against NDM-1 positive Escherichia coli ZC-YN3 isolates assessed as fractional Inhibitory concentration index incubated for 18 to 24 hrs in presence of doxycycline by CLSI based broth microdilution method; format: functional; conditions: time 18-24 hrs
[22] = tested on: Escherichia coli; experiment: Synergistic antibacterial activity against NDM-1 positive Escherichia coli ZC-YN3 isolates assessed as fractional Inhibitory concentration index incubated for 18 to 24 hrs in presence of colistin by CLSI based broth microdilution method; format: functional; conditions: time 18-24 hrs
[23] = tested on: Escherichia coli; experiment: Synergistic antibacterial activity against NDM-1 positive Escherichia coli ZC-YN3 isolates assessed as fractional Inhibitory concentration index incubated for 18 to 24 hrs in presence of ciprofloxacin by CLSI based broth microdilution method; format: functional; conditions: time 18-24 hrs
[24] = tested on: Bacteria; experiment: Inhibition of NDM-1 activity (unknown origin) in presence of zinc ion
[25] = tested on: Escherichia coli; experiment: Antibacterial activity against NDM-1 positive Escherichia coli ZC-YN3 isolates assessed as kanamycin MIC incubated for 18 to 24 hrs by CLSI based broth microdilution method; format: functional; conditions: time 18-24 hrs
[26] = tested on: Escherichia coli; experiment: Antibacterial activity against NDM-1 positive Escherichia coli ZC-YN3 isolates assessed as ampicillin MIC incubated for 18 to 24 hrs by CLSI based broth microdilution method; format: functional; conditions: time 18-24 hrs
[27] = tested on: Escherichia coli; experiment: Antibacterial activity against NDM-1 positive Escherichia coli ZC-YN3 isolates assessed as tetracycline MIC incubated for 18 to 24 hrs by CLSI based broth microdilution method; format: functional; conditions: time 18-24 hrs
[28] = tested on: Bacteria; remark: listed apart in the source
Description: Binding affinity to NDM-1 V73A mutant (unknown origin) assessed as binding constant by fluorescence quenching method

[29] = tested on: Escherichia coli; experiment: Synergistic antibacterial activity against pET28a NDM-1 positive Escherichia coli BL21(DE3) isolates assessed as fractional Inhibitory concentration index incubated for 18 to 24 hrs in presence of colistin by CLSI based broth microdilution method; format: functional; conditions: time 18-24 hrs
[30] = tested on: Bacteria; experiment: Binding affinity to NDM-1 M248A mutant (unknown origin) assessed as binding free energy by fluorescence quenching method
[31] = tested on: Escherichia coli; experiment: Synergistic antibacterial activity against NDM-1 positive Escherichia coli ZC-YN3 isolates assessed as fractional Inhibitory concentration index incubated for 18 to 24 hrs in presence of lincomycin by CLSI based broth microdilution method; format: functional; conditions: time 18-24 hrs
[32] = tested on: Escherichia coli; experiment: Synergistic antibacterial activity against NDM-1 positive Escherichia coli ZC-YN3 isolates assessed as fractional Inhibitory concentration index incubated for 18 to 24 hrs in presence of ampicillin by CLSI based broth microdilution method; format: functional; conditions: time 18-24 hrs
[33] = tested on: Escherichia coli; experiment: Antibacterial activity against pET28a-NDM-1 positive Escherichia coli BL21(DE3) isolates assessed as cefotaxime MIC incubated for 18 to 24 hrs by CLSI based broth microdilution method; format: functional; conditions: time 18-24 hrs
[34] = tested on: Escherichia coli; experiment: Synergistic antibacterial activity against pET28a NDM-1 positive Escherichia coli BL21(DE3) isolates assessed as fractional Inhibitory concentration index incubated for 18 to 24 hrs in presence of spectinomycin by CLSI based broth microdilution method; format: functional; conditions: time 18-24 hrs
[35] = tested on: Escherichia coli; experiment: Antibacterial activity against NDM-1 positive Escherichia coli ZC-YN3 isolates assessed as doxycycline MIC incubated for 18 to 24 hrs by CLSI based broth microdilution method; format: functional; conditions: time 18-24 hrs
[36] = tested on: Escherichia coli; experiment: Antibacterial activity against NDM-1 positive Escherichia coli ZC-YN3 isolates assessed as cefotaxime MIC incubated for 18 to 24 hrs by CLSI based broth microdilution method; format: functional; conditions: time 18-24 hrs

O=c1c(O)c(-c2ccc(O)c(O)c2)oc2cc(O)ccc12 [FISETIN]
fractional inhibitory concentration index (FICI) [1]: 0.25 | MIC [2]: 256 µg/mL | MIC [3]: 1.33 µg/mL | fractional inhibitory concentration index (FICI) [4]: 0.31 | fractional inhibitory concentration index (FICI) [5]: 0.96 | fractional inhibitory concentration index (FICI) [6]: 0.96 | fractional inhibitory concentration index (FICI) [7]: 1.13 | inhibition [8]: Active | MIC [9]: 853 µg/mL | fractional inhibitory concentration index (FICI) [10]: 1.13 | MIC [11]: 107 µg/mL | inhibition [12]: Active | MIC [13]: 6.67 µg/mL | MIC [14]: 341 µg/mL | MIC [15]: 853 µg/mL | fractional inhibitory concentration index (FICI) [16]: 0.38 | IC50 [17]: 56.13 µg/mL (≈ 196 µM) | Ka [18]: 12.2 10^5L/mol | MIC [19]: 512 µg/mL | MIC [20]: 10.7 µg/mL | fractional inhibitory concentration index (FICI) [21]: 0.96 | fractional inhibitory concentration index (FICI) [22]: 1.13 | fractional inhibitory concentration index (FICI) [23]: 1.13 | inhibition [24]: Active | MIC [25]: 853 µg/mL | MIC [26]: 853 µg/mL | MIC [27]: 128 µg/mL | Ka [28]: 11.1 10^5L/mol | fractional inhibitory concentration index (FICI) [29]: 1.13 | Activity [30]: -16.2 kcal/mol | fractional inhibitory concentration index (FICI) [31]: 1.13 | fractional inhibitory concentration index (FICI) [32]: 1.13 | MIC [33]: 512 µg/mL | fractional inhibitory concentration index (FICI) [34]: 0.96 | MIC [35]: 53.3 µg/mL | MIC [36]: 512 µg/mL

Reference: ChEMBL document CHEMBL5131475, “Metallo-β-lactamases inhibitor fisetin attenuates meropenem resistance in NDM-1-producing Escherichia coli” (Eur J Med Chem, 2022)
